“Also recorded” adds a separate entry of the source. Where two headings read alike, the source gives them in different places. Ends that are not written are not given here.
Key:
[1] = target: TgAMA1ΔDIIloop (TgAMA1 with the mobile portion of the DII loop replaced with a short Gly-Ser linker) (Toxoplasma gondii) (UniProt B6KAM0); experiment: ITC; TgAMA1 or TgAMA1ΔDIIloop in the sample cell (10 to 16 μM for nanomolar affinity, 35 to 75 μM for micromolar affinity), TRX-fused peptides (110 to 180 μM or 360 to 1180 μM) added in 17 injections of 2 μL; 25 °C; HBS (20 mM HEPES pH 7.5, 150 mM NaCl); one-site model
[2] = target: Toxoplasma gondii apical membrane antigen 1 (TgAMA1) (Toxoplasma gondii); experiment: as above
TgAMA1 = experiment: Isothermal titration calorimetry of TRX-fused RON2D3 peptides titrated into TgAMA1; assay type: binding, Toxoplasma gondii; settings: ITC, 25 °C; for -TΔS / ΔG / Kd / Molar Ratio (RON2/AMA1) / ΔH: TgAMA1, TRX-fused peptides; for Molar Ratio (RON2/AMA1) / ΔH: representative of at least two
Protocol: (§1) For ITC experiments, TgAMA1 was produced and purified as previously reported. Thioredoxin fusions of TgRON2D3, TgRON2L1D3, TgRON2L2D3, EtRON2D3 and PfRON2D3 were produced in E. coli BL21 cells and purified by nickel-affinity and SEC.
(§2) Purified TgAMA1, TgAMA1ΔDIIloop, and TRX fusions of TgRON2D3, TgRON2L1D3 TgRON2L2D3, EtRON2D3, and PfRON2D3 were dialyzed against HBS at 4 °C. All ITC experiments were carried out at 25 °C on a MicroCal iTC200 instrument (GE Healthcare). […] Data were processed using Origin software (MicroCal) and the dissociation constants (Kd) were determined using a one-site model. Values are derived from a single experiment, but are representative of at least two independent experiments.

TgAMA1ΔDIIloop [3] = experiment: Native gel electrophoresis of TgAMA1ΔDIIloop co-purified with EtRON2D3; assay type: binding, Toxoplasma gondii; settings: 8–25% gradient native gel, HBS, Coomassie Brilliant Blue; sample co-purified with EtRON2D3
Description: A sequence encoding a portion of EtRON2D3 (amino acids 1262 to 1297, ETH_00012760) was synthesized and subcloned into a modified pET32a vector (Novagen) incorporating N-terminal hexahistidine and thioredoxin (TRX) tags with a thrombin cleavage site. The fusion protein was produced in E. coli BL21 cells. For crystallization, EtRON2D3-TRX was cleaved to remove the fusion tags and co-purified with TgAMA1ΔDIIloop by SEC in HBS followed by anion exchange chromatography using a Source 30Q column (20 mM HEPES pH 8.0, 10 mM NaCl; elution gradient with 20 mM HEPES pH 8.0, 1 M NaCl) to remove residual TRX tag.
Purified TgAMA1ΔDIIloop and co-purified TgAMA1ΔDIIloop-EtRON2D3 protein samples in HBS were run on an 8–25% gradient native gel using the PhastGel system (GE Healthcare), and protein bands were visualized with Coomassie Brilliant Blue staining.

TgAMA1ΔDIIloop [4] = experiment: Isothermal titration calorimetry of TRX-fused RON2D3 peptides titrated into TgAMA1ΔDIIloop (DII loop replaced by Gly-Ser linker); assay type: binding, Toxoplasma gondii; settings: for binding to TgAMA1ΔDIIloop (in words) / Kd / -TΔS / ΔG / Molar Ratio (RON2/AMA1) / ΔH: ITC, 25 °C; for binding to TgAMA1ΔDIIloop (in words) / -TΔS / ΔG / Molar Ratio (RON2/AMA1) / ΔH: HBS pH 7.5; for Kd / -TΔS / ΔG / Molar Ratio (RON2/AMA1) / ΔH: TgAMA1ΔDIIloop, TRX-fused peptides; for Kd: HBS (20 mM HEPES pH 7.5, 150 mM NaCl), one-site model, representative of at least two independent experiments; for Kd / Molar Ratio (RON2/AMA1) / ΔH: single experiment; for Molar Ratio (RON2/AMA1) / ΔH: representative of at least two
Description: A sequence encoding the mature ectoplasmic region of TgAMA1 (amino acids 64 to 484, TGME49_255260 [24]) with the twenty residues of the DII loop disordered in the TgAMA1-TgRON2D3 co-structure replaced by a seven residue Gly-Ser linker (TgAMA1ΔDIIloop) was synthesized and subcloned into a modified pAcGP67b vector (Pharmingen) with a C-terminal thrombin cleavage site and hexahistidine tag. TgAMA1ΔDIIloop encoding virus for insect cell protein production was generated and amplified using established protocols. Following a 65 hr infection the supernatant was harvested, concentrated, and TgAMA1ΔDIIloop was purified by nickel batch binding as previously described. The hexahistidine tag was removed by thrombin cleavage and the protein was further purified by size exclusion chromatography (SEC) (Superdex 16/60 75) in HEPES buffered saline (HBS: 20 mM HEPES pH 7.5, 150 mM NaCl).
as §1, §2

TgAMA1 or TgAMA1ΔDIIloop = experiment: Isothermal titration calorimetry, TRX negative control; assay type: binding, Toxoplasma gondii; settings: ITC, 25 °C, HBS pH 7.5
Protocol: as §2

“EtRON2D3-TRX (Eimeria tenella RON2 domain 3 peptide, thioredoxin fusion) (from UniProt U6KQJ2 1262-1297)” was tested, and the Kd [1] was less than 0.008 µM and the Kd [2] was 2.2 µM.

In the case of “EtRON2D3: a portion of EtRON2D3 (amino acids 1262 to 1297, ETH_00012760), Eimeria tenella RON2 peptide (thioredoxin-DITQHLNDSGLGPAVECLENLVVGPVCPAAVVAPAV; not fully specified (bridges); also: disulfide partially formed)”, the “binding to TgAMA1 (in words)” value (TgAMA1; HBS pH 7.5) is reported as “bound both TgRON2D3 and EtRON2D3 but only the former with high affinity”, the “binding to TgAMA1 (in words)” value (TgAMA1; HBS pH 7.5, listed as EtRON2) is reported as “showed only weak binding to TgAMA1” and the “-TΔS” value (TgAMA1; HBS pH 7.5) is reported as -12.6 kJ/mol. The ΔG (TgAMA1; HBS pH 7.5) was -32.2 kJ/mol, the Kd (TgAMA1; HBS pH 7.5, rounded value, read-out: affinity (Kd)) was 2.2 µM and the “Molar Ratio (RON2/AMA1)” value (TgAMA1; HBS pH 7.5, single experiment) was 1.17 ± 0.02. For the same substance, the ΔH (TgAMA1; HBS pH 7.5, single experiment) was -19.7 ± 0.42 kJ/mol, the “native PAGE migration / retention on TgAMA1ΔDIIloop” value (TgAMA1ΔDIIloop [3]) was “altered migration for the sample co-purified with EtRON2D3” and the “binding to TgAMA1ΔDIIloop (in words)” value (TgAMA1ΔDIIloop [4]) was “bound both TgRON2D3 and EtRON2D3 with high affinity; also recorded: significantly tighter binding to TgAMA1ΔDIIloop relative to TgAMA1”. For the same substance, the “binding to TgAMA1ΔDIIloop (in words)” value (TgAMA1ΔDIIloop [4]; listed as EtRON2) was “bound with high affinity to TgAMA1ΔDIIloop”, the Kd (TgAMA1ΔDIIloop [4]) was 0.008 ± 0.0031 µM and the “-TΔS” value (TgAMA1ΔDIIloop [4]) was -0.42 kJ/mol. The ΔG (TgAMA1ΔDIIloop [4]) was -46.4 kJ/mol, the “Molar Ratio (RON2/AMA1)” value (TgAMA1ΔDIIloop [4]) was 0.96 ± 0.01 and the ΔH (TgAMA1ΔDIIloop [4]) was -46 ± 0.42 kJ/mol. The “fold tighter binding to TgAMA1ΔDIIloop relative to TgAMA1” value (TgAMA1ΔDIIloop [4]; ratio of ITC Kd, TgAMA1 (2.2 μM) vs TgAMA1ΔDIIloop (8.0 nM)) was “approximately 275 fold”.

Substance “PfRON2D3 thioredoxin fusion (Plasmodium falciparum RON2 domain 3 peptide)” has a Kd [1] of 1.4 µM and a stoichiometry N [1] of 1.

With “TRX: thioredoxin, injected as a negative control” the “binding of TRX negative control” value (TgAMA1 or TgAMA1ΔDIIloop) was “no detectable binding”.

“TgRON2D3 thioredoxin fusion (Toxoplasma gondii RON2 domain 3 peptide) (from UniProt B6KV60 1297-1332)” showed a Kd [2] of less than 0.0058 µM.

In the case of “TgRON2D3: RON2 domain 3 peptide of T. gondii, thioredoxin fusion produced in E. coli BL21 (DIVQHMEDIGGAPPVSCVTNEILGVTCAPQAIAKAT; cysteine pairing not given here; also: thioredoxin fusion, end not given here, His tag, end not given here)”, the “binding to TgAMA1 (in words)” value (TgAMA1; HBS pH 7.5) is reported as “bound both TgRON2D3 and EtRON2D3 but only the former with high affinity”, the Kd (TgAMA1; HBS (20 mM HEPES pH 7.5, 150 mM NaCl), one-site model, single experiment, representative of at least two independent experiments, read-out: Kd) is reported as 0.0058 ± 0.0028 µM and the “-TΔS” value (TgAMA1; HBS pH 7.5) is reported as 24.7 kJ/mol. The ΔG (TgAMA1; HBS pH 7.5) was -46.9 kJ/mol, the “Molar Ratio (RON2/AMA1)” value (TgAMA1; HBS pH 7.5, single experiment) was 1.00 ± 0.01 and the ΔH (TgAMA1; HBS pH 7.5, single experiment) was -71.5 ± 0.84 kJ/mol. The “binding to TgAMA1ΔDIIloop (in words)” value (TgAMA1ΔDIIloop [4]) was “bound both TgRON2D3 and EtRON2D3 with high affinity”, the Kd (TgAMA1ΔDIIloop [4]) was 0.0036 ± 0.003 µM and the “-TΔS” value (TgAMA1ΔDIIloop [4]) was 44.4 kJ/mol. For the same substance, the ΔG (TgAMA1ΔDIIloop [4]) was -48.5 kJ/mol, the “Molar Ratio (RON2/AMA1)” value (TgAMA1ΔDIIloop [4]) was 1.01 ± 0.01 and the ΔH (TgAMA1ΔDIIloop [4]) was -92.9 ± 0.84 kJ/mol.

“TgRON2L1D3 thioredoxin fusion (Toxoplasma gondii RON2L1 domain 3 peptide)” gave a Kd [1] of 46 µM and a stoichiometry N [1] of 1.

With “TgRON2L2D3 thioredoxin fusion (Toxoplasma gondii RON2L2 domain 3 peptide)” the Kd [1] was 6 µM and the stoichiometry N [1] was 1.

From publication PMC4425356, “An Extended Surface Loop on Toxoplasma gondii Apical Membrane Antigen 1 (AMA1) Governs Ligand Binding Selectivity” (PLoS ONE, 2015)
